From patent publication US20260265675A1, “Methods for Enhanced Gene Expression in Microorganisms” (ALGAE-C INC., priority 2023, published 2026)

What was measured:
Type in all cases: cell-based, Chlamydomonas reinhardtii
mVenus [1] = test: mVenus expression after 6-day treatment with SAHA analogs and other HDAC inhibitors (96 well liquid culture, flow cytometry and plate reader); conditions: for expression of the transgene: mVenus transgene in Chlamydomonas reinhardtii, compared with other histone deacetylase inhibitors; for frequency of mVenus-positive cells / increase of amount of mVenus inside each cell (mean fluorescence intensity) / increase of frequency of mVenus-positive cells: day 3 post-treatment
Experimental: For the SAHA (vorinostat), belinostat, dacinostat, panobinostat, mocetinostat, entinostat, and romidepsin series of treatments (comparison between various SAHA analogs and other HDAC inhibitors), inoculums of 10^5 cells in late exponential phase of growth were transferred in 200 μL of TAP medium in 96 well plates and were treated with 5 μM of each histone deacetylase inhibitor for 6 days. DMSO was used as a negative control.
(§1) Growth curves were obtained using a Synergy H1 plate reader (Biotek, Agilent), from two or three biological replicates for each strain studied as in (Molino et al., 2022). For SAHA main treatments, 250 μL samples of 50 mL cultures were added in 96 well flat bottom microplates (Corning Costar 96-Well, Cell Culture-Treated, Fisher Scientifics). The OD absorbance was read at 750 nm. Bottom read scan mode mean fluorescence was measured with Excitation (Ex): 500 nm/Emission (Em): 541 nm for mVenus; and bottom read fluorescence Ex: 475 nm/Em: 650 nm for chlorophyll.
(§2) A Cytomics FC500 cytometer equipped with Argon (488 nm) and HeNe (633 nm) lasers were used to measure mVenus emission on the FL1 channel (525/15 nm), and chloroplast fluorescence on the FL4 channel (675/15 nm) (Beckman Coulter Life Sciences). At least 10 000 events were acquired. A homogeneous cloud of intact cells was first gated based on size (FSC) and granulosity (SSC). Then a daughter gate selected the cloud of cells with homogenous chlorophyll autofluorescence. The % of mVenus^+ cells was measured on this daughter population with a gate in the FL1 channel that excluded cells with autofluorescence levels similar to the negative controls. Cells were considered mVenus^+ when both the % of gated mVenus^+ cells (and >0.1%) and mVenus mean fluorescence intensity were higher than the values of the WT controls. Propidium iodide (Thermo Fisher) was used to verify viability and acquired on the FL3 channel (620/20 nm). To select for palmelloid cells, a second gate that included events with a minimum of 2-fold increase in FSC mean intensity was drawn, similarly to (Cheloni and Slaveykova, 2021). In that case, cells were acquired on a Beckman Cytoflex S equipped with violet (405 nm), blue (488 nm), yellow-green (561 nm) and red (638 nm) lasers. Chlorophyll autofluorescence was detected in the PerCP channel (690/50 nm), mVenus on the FITC (525/40BP). Statistics were obtained using BD FlowJo version 10 software (BD Biosciences, La Jolla, CA, USA, 2020).

mVenus [2] = test: mVenus expression by flow cytometry after 24 h treatment with silencing inhibitors (96 well liquid culture)
Experimental: For the sirtinol, SAHA, OSS-128167, nicotinamide and sodium butyrate series of treatments (comparison between various HDAC inhibitors), inoculums of 10^5 cells in late exponential phase of growth were transferred in 200 μL of TAP medium in 96 well plates and were treated with 50 μM, 2.5 μM, 100 μM, 1 mM and 5 mM of each histone deacetylase inhibitor respectively for 24 hours; a mix of all inhibitors was also tested. DMSO was used as a negative control.
as §2

mVenus [3] = test: mVenus expression followed over 12 days after SAHA treatment in flask cultures (microplate reader and flow cytometer)
Experimental: (§3) For the SAHA main treatments, inoculum of 10^5 cells in late exponential phase of growth were transferred in 50 mL of TAP medium in 125 mL shake flasks and were treated with 5 μM for 12 days (to evaluate mVenus expression overtime), or with 2.5, 5 and 10 μM for 6 days (to evaluate SAHA toxicity over cell viability). DMSO was used as a negative control.
as §1, §2

C. reinhardtii [4] = test: Cell viability (membrane integrity) by propidium iodide staining, flow cytometry; conditions: SAHA 2.5, 5 and 10 μM, day 6
Experimental: as §3
as §2, with “To select for palmelloid cells, a second gate that included events with a minimum of 2-fold increase in FSC mean intensity was drawn, similarly to (Cheloni and Slaveykova, 2021). In that case, cells were acquired on a Beckman Cytoflex S equipped with violet (405 nm), blue (488 nm), yellow-green (561 nm) and red (638 nm) lasers.” left out, “Statistics were obtained using BD FlowJo version 10 software (BD Biosciences, La Jolla, CA, USA, 2020).” left out

C. reinhardtii [5] = test: Palmelloid colony formation and motility (microscopy, flow cytometry)
Experimental: as §3, §2

C. reinhardtii [6] = test: Growth curve / growth kinetic (OD 750 nm)
Experimental: […] DMSO was used as a negative control.
as §1

mVenus mRNA = mVenus mRNA relative expression by RT-qPCR (normalized on histone H3); conditions: day 6
Experimental: 4 mL of a 6 days C. reinhardtii grown culture were harvested and centrifuged in Eppendorf tube for 5 min at 4000 g. Cells were lysed by immersion in liquid nitrogen for 1 min. Total RNA was extracted using Invitrogen™ TRIzol™ reagent (Life technologies, Thermo Fisher Scientifics) according to the manufacturer's protocol with minor modifications, including the addition of NaCl at a final concentration of 100 mM in the isopropanol at the nucleic acids precipitation step. Samples were further treated with Turbo DNase (Invitrogen™ TURBO DNA-free™ Kit, Thermo Fisher Scientifics) according to the manufacturer's instructions. RNA yield and quality were determined with 260 nm/280 nm absorbance ratio obtained on a Nanodrop instrument (Thermo Fisher Scientific). Samples of <100 ng total RNA were subjected to reverse transcription and qPCR amplification in a single reaction using the Luna® Universal One-Step RT-qPCR Kit Protocol (New England Biolabs Canada). Briefly, 1 μl of RNA were subjected to reverse transcription performed at 55° C. for 10 minutes. Initial denaturation was 1 min at 95° C. followed by 45 cycles of denaturation for 10 seconds, extension for 30 seconds at 60° C. […] SYBR Green fluorescence was recorded in the FAM channel of a CFX connect real time system (BioRad). […] Relative mRNA expression levels were determined according to the 2^(−ddCt) method.

mVenus [7] = test: mVenus expression after one year of storage, 72 h treatment with histone deacetylase inhibitors (flow cytometry); conditions: SAHA 5 μM, cells stored for one year after transformation
Text: as §2, with “Statistics were obtained using BD FlowJo version 10 software (BD Biosciences, La Jolla, CA, USA, 2020).” left out

C. reinhardtii [8] = test: Chlorophyll content observed by culture colour at higher SAHA concentrations
[9] = SAHA 2.5 μM, transformed clones
[10] = SAHA 5 μM, compared to untreated or DMSO treated cells

Structure (SMILES): O=C(/C=C/c1cccc(S(=O)(=O)Nc2ccccc2)c1)NO [Belinostat, (2E)-N-Hydroxy-3-[3-(phenylsulfamoyl)phenyl]prop-2-enamide]
- expression of the transgene (mVenus [1]): substantially increase

Structure (SMILES): O=C(/C=C/c1ccc(CN(CCO)CCc2c[nH]c3ccccc23)cc1)NO [Dacinostat, (E)-N-hydroxy-3-[4-[[2-hydroxyethyl-[2-(1H-indol-3-yl)ethyl]amino]methyl]phenyl]prop-2-enamide]
- expression of the transgene (mVenus [1]): substantially increase

Structure (SMILES): Cc1[nH]c2ccccc2c1CCNCc1ccc(/C=C/C(=O)NO)cc1 [Panobinostat, (2E)-N-hydroxy-3-[4-({[2-(2-methyl-1H-indol-3-yl)ethyl]amino}methyl)phenyl]acrylamide]
- expression of the transgene (mVenus [1]): substantially increase

Structure (SMILES): O=C(CCCCCCC(=O)Nc1ccccc1)NO [SAHA, N-hydroxy-N′-phenyloctanediamide]
- frequency of cells expressing mVenus (mVenus [2]; [9]): increased
- level of expression of mVenus per cell (mVenus [2]; [9]): increased
- % of mVenus cells (mVenus [2]; clone 16, SAHA 2.5 μM): 68.1%
- increase in protein expression (mean fluorescence intensity) (mVenus [2]; clone 16, SAHA 2.5 μM): 4.6 fold
- increase of % of mVenus cells (mVenus [2]; clone 16, SAHA 2.5 μM, versus 13.3% without SAHA): 5.1 fold
- frequency of mVenus-positive cells (mVenus [1]; clone 16, 5 μM): 73.1%
- increase of amount of mVenus inside each cell (mean fluorescence intensity) (mVenus [1]; clone 16, 5 μM): 3-4 fold
- increase of frequency of mVenus-positive cells (mVenus [1]; clone 16, 5 μM): 8.6 fold
- frequency of mVenus-positive cells (mVenus [1]; clone 17, 5 μM): 59.9%
- increase of amount of mVenus inside each cell (mean fluorescence intensity) (mVenus [1]; clone 17, 5 μM): 2-5 fold
- increase of frequency of mVenus-positive cells (mVenus [1]; clone 17, 5 μM): 27 fold
- expression of the transgene (mVenus [1]): substantially increase
- mVenus fluorescence (mVenus [3]; SAHA 5 μM at day 0, around day 4-5, all clones): steadily increased
- transgene expression over culture period (mVenus [3]; SAHA 5 μM, 12 days, flask cultures): steadily increases
- decline in mVenus production in stationary phase (mVenus [3]; SAHA 5 μM, around day 7-8): did not prevent the progressive decline in production
- mVenus fluorescence per cell at day 12 (mVenus [3]; [10]): more mVenus fluorescence per cells
- population of mVenus expressing cells at day 12 (mVenus [3]; [10]): more frequent population of mVenus expressing cells
- % of producing cells (mVenus+) at maximum production (mVenus [3]; SAHA 5 μM, day 5-7, all the clones): more than 74%
- time of maximum production of mVenus (mVenus [3]; SAHA 5 μM, end of the exponential phase): 5 to 7 days
- % mVenus+ cells at day 12 (mVenus [3]; SAHA 5 μM, most clones (except 16)): < 10%
- % of PI+ cells (C. reinhardtii [4]): slightly increased
- % of transformant cells remaining intact (C. reinhardtii [4]): ~ 90%
- palmelloid colonies quantified by flow cytometry (C. reinhardtii [5]; SAHA 5 μM, day 3 and 6 post-treatment, in most cases): increased
- palmelloid colonies (microscopy) (C. reinhardtii [5]; SAHA 5 and 10 μM, 6 days): accumulation of small palmelloid colonies
- palmelloid colonies (microscopy) (C. reinhardtii [5]; SAHA 20, 40 and 80 μM, increasing concentrations): Larger palmelloid colonies
- motility (C. reinhardtii [5]; SAHA above 2.5 μM): progressively lost
- phenotype induced in C. reinhardtii (C. reinhardtii [5]; SAHA, FIG. 6): induces a palmelloid phenotype
- growth kinetic (C. reinhardtii [6]; 80 μM SAHA): totally inhibited
- growth kinetic (C. reinhardtii [6]; 20 and 40 μM SAHA): inhibited partially
- overall growth of microalgae (C. reinhardtii [6]; SAHA 5 μM, 12 days): did not impact the overall growth
- increase of relative mVenus mRNA expression over histone H3 mRNA (mVenus mRNA; clone 16, SAHA 5 μM): 7 fold
- increase of relative mVenus mRNA expression over histone H3 mRNA (mVenus mRNA; clone 17, SAHA 5 μM): 6.6 fold
- frequency of cells expressing mVenus (mVenus [7]): increased
- chlorophyll content, culture colour (C. reinhardtii [8]; 80 μM SAHA): red tint
- chlorophyll content, culture colour (C. reinhardtii [8]; 20 and 40 μM SAHA): more yellow tint
